According to patent US11130780B2, “Inhibitors of growth factor activation enzymes” (Washington University, priority 2015, dated 2021):
Like-named read-outs stand apart in the source and are kept apart here. Starred links: 1 amine or outer side, 2 acyl side, 3 side chain; linkers in the order of their positions; H or OH if unused. Non-standard residues stand in square brackets, D forms with d. Residues, ends and D or L forms follow the SMILES beside them. X1 = N=C(N)NCCC[C@H](N[*:1])C(=O)c1nc2ccc(C(=O)[*:2])cc2s1

Assays:
Assay type in all cases: biochemical
hepsin = target: T1, hepsin (Homo sapiens, UniProt P05981); assay: Fluorescent kinetic enzyme inhibitor assay of hepsin
T1 construct: purchased R&D Systems 4776-SE-010
Outline: (§1)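 Fluorescence (ex 380/em 460 nm) followed kinetically at room temperature; IC50 from four-parameter fit of mean velocity versus concentration, averaged over three experiments.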

Factor Xa = Factor Xa (Homo sapiens, UniProt P00742); assay: Chromogenic kinetic enzyme assay of Factor Xa
Procedure: (§2) Inhibitors (11-pt serial dilutions, 0-20 μM final concentration) were serially diluted in DMSO (2% DMSO final concentration) and then mixed with recombinant thrombin (0.15 nM final concentration) or Factor Xa (0.35 nM final concentration) in TNC buffer (25 mM Tris, 150 mM NaCl, 5 mM CaCl2, 0.01% TRITON X-100, pH 8) using clear 384 well plates. […] Changes in absorbance at 405 nm were measured over time in a Biotek Synergy 2 plate (Winnoski, Vt.). Using GraphPad Prism version 6.04 software program, (GraphPad Software, San Diego, Calif., www.graphpad.com), a four parameter curve fit was used to determine the inhibitor IC50s from a plot of the mean reaction velocity versus the inhibitor concentration. Ki values were calculated from the IC50 values using the Cheng and Prusoff equation (Ki=IC50/(1+[S]/Km).

thrombin = thrombin (Homo sapiens, UniProt P00734); assay: Chromogenic kinetic enzyme assay of thrombin
Procedure: as §2

matriptase = target: T2, matriptase (Homo sapiens, UniProt Q9Y5Y6); assay: Fluorescent kinetic enzyme inhibitor assay of matriptase
T2 construct: Charles Craik, UCSF (obtained from another laboratory)
T2 sequence (Q9Y5Y6 615-855 limits assumed): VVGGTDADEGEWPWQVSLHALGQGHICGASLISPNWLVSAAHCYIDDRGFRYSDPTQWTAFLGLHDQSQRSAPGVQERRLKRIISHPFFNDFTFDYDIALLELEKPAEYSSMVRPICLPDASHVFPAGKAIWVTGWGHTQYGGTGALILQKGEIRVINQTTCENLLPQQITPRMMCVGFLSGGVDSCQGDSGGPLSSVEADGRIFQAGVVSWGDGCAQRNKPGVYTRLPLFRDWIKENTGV
Outline: as §1

HGFA = target: T3, HGFA (Homo sapiens, UniProt Q04756); assay: Fluorescent kinetic enzyme inhibitor assay of HGFA; conditions: read-out: HGFA Ki
T3 construct: His6 tag (N); seven amino acid spacer and seven amino acid TEV cleavage site (N); Honey Bee melittin signal peptide (N); made in house; host or cells: High 5 insect cells (baculovirus; virus raised in Sf9)
T3 sequence (Q04756 373-655): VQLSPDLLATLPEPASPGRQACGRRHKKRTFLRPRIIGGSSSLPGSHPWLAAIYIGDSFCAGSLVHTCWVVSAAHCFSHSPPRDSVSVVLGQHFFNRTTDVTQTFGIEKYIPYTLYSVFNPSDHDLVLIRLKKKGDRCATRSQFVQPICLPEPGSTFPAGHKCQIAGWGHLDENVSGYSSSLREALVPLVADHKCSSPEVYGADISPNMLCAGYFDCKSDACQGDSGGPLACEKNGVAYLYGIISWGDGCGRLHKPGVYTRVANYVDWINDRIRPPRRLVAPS
Outline: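 Recombinant His-tagged HGFA residues 373-655 from insect cells, with substrate at Km. Inhibitors in 11-point dilutions, 0-20 μM final, 2% DMSO, fluorescence (ex 380/em 460 nm) followed over time at room temperature. IC50 from four-parameter fit of mean velocity, average of three experiments.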

[1] = Table 6.2, headed Fluorogenic Assay, read-out: Factor Xa Ki
[2] = Table 6.2, headed Fluorogenic Assay, read-out: Thrombin Ki
[3] = Table 6.1, Fluorogenic Assay, read-out: Hepsin Ki

Factor Xa, sequence (P00742 235-488 limits assumed): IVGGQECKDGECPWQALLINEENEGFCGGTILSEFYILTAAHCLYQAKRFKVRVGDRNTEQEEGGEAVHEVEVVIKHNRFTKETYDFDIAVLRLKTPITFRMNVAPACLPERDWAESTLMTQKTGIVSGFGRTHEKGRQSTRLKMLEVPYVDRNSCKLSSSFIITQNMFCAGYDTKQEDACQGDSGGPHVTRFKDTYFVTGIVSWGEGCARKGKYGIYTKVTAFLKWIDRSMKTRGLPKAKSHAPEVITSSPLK
Factor Xa, sequence (P00742 41-179 partner limits assumed): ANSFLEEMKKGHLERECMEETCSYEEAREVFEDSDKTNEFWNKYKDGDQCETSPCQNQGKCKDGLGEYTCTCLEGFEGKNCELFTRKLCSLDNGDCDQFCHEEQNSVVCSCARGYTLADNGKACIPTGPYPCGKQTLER
T1 sequence (P05981 163-417 limits assumed): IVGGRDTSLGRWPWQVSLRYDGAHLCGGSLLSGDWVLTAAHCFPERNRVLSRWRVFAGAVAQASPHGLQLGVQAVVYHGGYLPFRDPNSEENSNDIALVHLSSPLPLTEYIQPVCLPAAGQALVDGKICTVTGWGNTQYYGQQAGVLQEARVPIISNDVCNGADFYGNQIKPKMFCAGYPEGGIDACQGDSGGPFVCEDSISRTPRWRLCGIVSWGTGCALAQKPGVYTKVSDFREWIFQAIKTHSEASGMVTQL
T1 sequence (P05981 45-162 partner limits assumed): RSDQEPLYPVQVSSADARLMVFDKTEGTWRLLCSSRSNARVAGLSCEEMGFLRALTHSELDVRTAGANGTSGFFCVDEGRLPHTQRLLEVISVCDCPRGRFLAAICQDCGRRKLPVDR

Row | Structure (SMILES) | Ki (Factor Xa; [1]) | Ki (thrombin; [2]) | Ki (HGFA; Table 6.1, Fluorogenic Assay) | other results
1 | CC(=O)N[C@@H](CCCCN)C(=O)N[C@@H](CCC(N)=O)C(=O)N[C@@H](CC(C)C)C(=O)N[C@@H](CCCNC(=N)N)C(=O)c1nc2ccc(C(=O)N[C@H](C(N)=O)C(C)C)cc2s1 [Compound 7055, Ac-KQLR(SEQ ID NO: 1)-Kbt-Val—NH2] (Ac-KQL[X1]V-NH2) | 66 nM | 3210 nM | 12 nM | Ki (hepsin; read-out: hepsin Ki): 0.3 nM; Ki (matriptase): 7 nM; Ki (HGFA): 13 nM
2 | CC(=O)N[C@@H](Cc1c[nH]c2ccccc12)C(=O)N[C@@H](CC(C)C)C(=O)N[C@@H](Cc1ccccc1)C(=O)N[C@@H](CCCNC(=N)N)C(=O)c1nc2ccccc2s1 [Compound 7064, Ac-WLFR(SEQ ID NO: 20)-Kbt] | 1 nM | > 20000 nM | 133 nM | –
3 | CC(=O)N[C@@H](CCCCN)C(=O)N[C@@H](CCCNC(=N)N)C(=O)N[C@@H](CC(C)C)C(=O)N[C@@H](CCCNC(=N)N)C(=O)c1nc2ccc(C(=O)N[C@H](C(N)=O)C(C)C)cc2s1 [Compound 7115, Ac-KRLR(SEQ ID NO: 8)-Kbt-Val—NH2] (Ac-KRL[X1]V-NH2) | 17 nM | 1560 nM | 5.83 nM | Ki (matriptase; Table 6.1, Fluorogenic Assay): 7.41 nM
4 | CC(=O)N[C@@H](CO)C(=O)N[C@@H](CCCCN)C(=O)N[C@@H](CC(C)C)C(=O)N[C@@H](CCCNC(=N)N)C(=O)c1nc2ccc(C(=O)N[C@H](C(N)=O)C(C)C)cc2s1 [Compound 7116, Ac-SKLR(SEQ ID NO: 10)-Kbt-Val— NH2] (Ac-SKL[X1]V-NH2) | – | – | 13 nM | Ki (hepsin; [3]): 0.19 nM; Ki (Factor Xa): 385 nM; Ki (thrombin): 4500 nM
5 | CC(=O)N[C@@H](CO)C(=O)N[C@@H](CCCCN)C(=O)N[C@@H](CC(C)C)C(=O)N[C@@H](CCCNC(=N)N)C(=O)c1nc2ccc(C(=O)O)cc2s1 [Compound 7118, Ac-SKLR(SEQ ID NO: 10)-Kbt-COOH] | 1250 nM | > 2000 nM | 132 nM | –
6 | CC(=O)N[C@@H](CO)C(=O)N[C@@H](CCCCN)C(=O)N[C@@H](CC(C)C)C(=O)N[C@@H](CCCNC(=N)N)C(=O)c1nc2ccc(C(=O)N[C@@H](Cc3c[nH]c4ccccc34)C(N)=O)cc2s1 [Compound 7124, Ac-SKLR(SEQ ID NO: 10)-Kbt-Trp— NH2] (Ac-SKL[X1]W-NH2) | 163 nM | 1230 nM | 15.8 nM | –
7 | CC(=O)N[C@@H](CO)C(=O)N[C@@H](CCCCN)C(=O)N[C@@H](CC(C)C)C(=O)N[C@@H](CCCNC(=N)N)C(=O)c1nc2ccc(C(=O)N[C@@H](Cc3ccccc3)C(N)=O)cc2s1 [Compound 7125, Ac-SKLR(SEQ ID NO: 10)-Kbt-Phe— NH2] (Ac-SKL[X1]F-NH2) | 544 nM | 3640 nM | 17.3 nM | Ki (hepsin; [3]): 0.14 nM
8 | CC(=O)N[C@@H](CO)C(=O)N[C@@H](CCCCN)C(=O)N[C@@H](CC(C)C)C(=O)N[C@@H](CCCNC(=N)N)C(=O)c1nc2ccc(C(=O)Nc3ccncc3)cc2s1 [Compound 7126, Ac-SKLR(SEQ ID NO: 10)-Kbt-4-pyridinylamide] | 221 nM | 3430 nM | 31.8 nM | Ki (hepsin; [3]): 0.14 nM
9 | CC(=O)N[C@@H](CO)C(=O)N[C@@H](CCCCN)C(=O)N[C@@H](CC(C)C)C(=O)N[C@@H](CCCNC(=N)N)C(=O)c1nc2ccc(C(=O)NCc3ccccc3)cc2s1 [Compound 7139, Ac-SKLR(SEQ ID NO: 10)-Kbt- benzylamide] | 190 nM | 2470 nM | 9.1 nM | –
10 | CC(=O)N[C@@H](CO)C(=O)N[C@@H](CCCCN)C(=O)N[C@@H](CC(C)C)C(=O)N[C@@H](CCCNC(=N)N)C(=O)c1nc2ccc(C(=O)NC3CCNCC3)cc2s1 [Compound 7140, Ac-SKLR(SEQ ID NO: 10)-Kbt-4-piperidinylamide] | 447 nM | 2950 nM | 7.7 nM | –
11 | CC(=O)N[C@@H](CCCCN)C(=O)N[C@@H](CCCNC(=N)N)C(=O)N[C@@H](CC(C)C)C(=O)N[C@@H](CCCNC(=N)N)C(=O)c1nc2ccc(C(=O)NCc3cccc(C(=O)O)c3)cc2s1 [Compound 7165, Ac-KRLR(SEQ ID NO: 8)-Kbt-5-COOH] | 20.2 nM | 1940 nM | 6.07 nM | –
12 | CC(C)C[C@H](NC(=O)[C@@H](N)Cc1c[nH]c2ccccc12)C(=O)N[C@@H](CCCNC(=N)N)C(=O)c1nc2ccccc2s1 [Compound 7170, H-WLR-kbt] | 532 nM | 457 nM | 104 nM | –
13 | CC(C)C[C@H](NC(=O)[C@@H](N)CCCNC(=N)N)C(=O)N[C@@H](CCCNC(=N)N)C(=O)c1nc2ccccc2s1 [Compound 7171, H-RLR-kbt] | 56 nM | 8200 nM | 83.1 nM | –
14 | CC(C)C[C@H](NC(=O)[C@@H](N)CCCNC(=N)N)C(=O)N[C@@H](CCCNC(=N)N)C(=O)c1nc2ccc(C(=O)N[C@H](C(N)=O)C(C)C)cc2s1 [Compound 7180, H-RLR-kbt V amide] | 18 nM | 548 nM | 12.5 nM | –
15 | CC(C)C[C@H](NC(=O)[C@@H](N)Cc1c[nH]c2ccccc12)C(=O)N[C@@H](CCCNC(=N)N)C(=O)c1nc2ccc(C(=O)N[C@H](C(N)=O)C(C)C)cc2s1 [Compound 7181, H-WLR-kbt V amide] | 159 nM | 41 nM | 73.9 nM | –
16 | CC(C)C[C@H](NC(=O)[C@@H](N)CC(C)C)C(=O)N[C@@H](CCCNC(=N)N)C(=O)c1nc2ccc(C(=O)N[C@H](C(N)=O)C(C)C)cc2s1 [Compound 7182, H-LLR-kbt V amide] | 159 nM | 101 nM | 82.1 nM | –
17 | CC(C)C[C@H](NC(=O)OCC1c2ccccc2-c2ccccc21)C(=O)N[C@@H](CCCNC(=N)N)C(=O)c1nc2ccccc2s1 [Compound 7185-11, Fmoc-LR-kbt] | 410 nM | 995 nM | 450 nM | –
